Reference: US10899738B2 (THE REGENTS OF THE UNIVERSITY OF MICHIGAN, priority 2016, dated 2021)
Like-named read-outs stand apart in the source and are kept apart here. Values belong to the compound of their own block, whether it stands above or below them.

Columns and labels:
[1] = Cell growth inhibition, CellTiter-Glo Luminescent Cell Viability Assay; type: cell-based
Procedure, shortened: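 Cells seeded at 2,000/well with serially diluted compound and cultured 4 days at 37 °C, 5% CO2. Viability read by CellTiter-Glo luminescence; IC50 derived from dose-response.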

[2] = test system: MOLM-13 cells; experiment: Mechanism of action studies, gene expression measured with qPCR in MOLM-13 cells; type: cell-based
Procedure: (§1) MOLM-13 or MV4-11 cells were seeded in a 6-well plate at a density of 500,000 cells/well in 2 ml of culture medium and treated with either Cpd. No. 210 or Cpd. No. 366 at the concentrations as indicated. About 4 days after the treatments, cells were harvested and the expression of each gene was measured with qPCR.
as §1, with “MOLM-13” for “MOLM-13 or MV4-11”, “366” for “210”, “238” for “366”, “66 hours” for “4 days”, “treatment,” for “treatments,”
as §1, with “500,000-800,000” for “500,000”, “366” for “210”, “215” for “366”, “40 hours” for “4 days”, “treatment,” for “treatments,”

[3] = biological target: menin protein (Homo sapiens (Human), UniProt O00255); experiment: biochemical; type: binding
Procedure, shortened: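 Test compounds displaced FAM-MM2 (2 nM) from 4 nM menin after 30 min equilibration at room temperature in PBS buffer containing bovine γ-globulin, 4% DMSO and Triton X-100. Binding was followed by fluorescence polarization. Competition curves were fitted by nonlinear regression to give IC50 and Ki.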

[4] = test system: MV4-11 cells; experiment: Mechanism of action studies, gene expression measured with qPCR in MV4-11 cells; type: cell-based
Procedure: as §1
as §1, with “500,000-800,000” for “500,000”, “366” for “210”, “215” for “366”, “40 hours” for “4 days”, “treatment,” for “treatments,”

[5] = MOLM-13, 96 h, read-out: Cell Growth Inhibition IC50 (μM) MOLM13
[6] = MV4-11, 96 h, read-out: Cell Growth Inhibition IC50 (μM) MV4, 11
[7] = 66 hours of treatment, dose dependent
[8] = FP competitive binding, menin protein 4 nM, FAM-MM2 probe 2 nM, read-out: Menin Binding Affinity IC50
[9] = 4 days of treatment, dose dependent
[10] = MOLM-13, 96 h, read-out: Cell Growth Inhibition IC50 (μM) MOLM13, MOLM13 cells, 4 days, CellTiter-Glo
[11] = MV4-11, 96 h, read-out: Cell Growth Inhibition IC50 (μM) MV4, 11, MV4, 11 cells, 4 days, CellTiter-Glo
[12] = MOLM-13, 96 h, MOLM13 cells, 4 days, CellTiter-Glo, read-out: Cell Growth Inhibition IC50 (μM) MOLM13
[13] = MV4-11, 96 h, MV4, 11 cells, 4 days, CellTiter-Glo, read-out: Cell Growth Inhibition IC50 (μM) MV4, 11

Sequence of menin protein (O00255 whole entry): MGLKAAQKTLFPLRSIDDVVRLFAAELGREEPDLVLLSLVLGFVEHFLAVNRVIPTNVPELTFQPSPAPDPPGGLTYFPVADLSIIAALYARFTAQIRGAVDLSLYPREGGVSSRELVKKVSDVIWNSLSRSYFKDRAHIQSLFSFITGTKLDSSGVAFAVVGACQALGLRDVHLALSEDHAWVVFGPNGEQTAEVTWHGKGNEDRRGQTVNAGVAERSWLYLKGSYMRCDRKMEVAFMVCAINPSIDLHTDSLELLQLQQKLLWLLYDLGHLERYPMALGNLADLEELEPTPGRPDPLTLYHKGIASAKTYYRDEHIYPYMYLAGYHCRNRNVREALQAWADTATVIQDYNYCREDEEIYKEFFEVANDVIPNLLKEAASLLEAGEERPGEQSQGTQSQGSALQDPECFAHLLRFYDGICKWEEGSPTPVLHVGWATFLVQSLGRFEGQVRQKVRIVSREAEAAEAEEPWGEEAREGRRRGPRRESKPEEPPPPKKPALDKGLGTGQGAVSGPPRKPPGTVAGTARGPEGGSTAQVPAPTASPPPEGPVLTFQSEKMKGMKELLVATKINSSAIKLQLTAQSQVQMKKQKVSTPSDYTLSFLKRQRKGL

SMILES: CNC(=O)O[C@H]1CCC[C@@H]1C(Cn1ccnc1)(c1ccccc1)C1CCN(CC2CN(c3ccc(S(=O)(=O)c4cnn(C)c4)cc3)C2)CC1 (mixture of isomers) [compound 238, rac-(1S,2R)-2-(2-(1H-imidazol-1-yl)-1-(1-((1-(4-((1-methyl-1H-pyrazol-4-yl)sulfonyl)phenyl)azetidin-3-yl)methyl)piperidin-4-yl)-1-phenylethyl)cyclopentyl methylcarbamate]
IC50 [1, 5]: 0.16 µM
IC50 [1, 6]: 0.027 µM
ITGAM gene expression ([2]; 66 hours of treatment): not effect
MEIS1 gene expression ([2]; 66 hours of treatment): reduced
HOX7 gene expression [2, 7]: reduced
HOX10 gene expression [2, 7]: reduced
IC50 [3, 8]: 0.008 µM

SMILES: CNC(=O)O[C@H]1CCC[C@@H]1C1(C2CCN(CC3CN(c4ccc(S(=O)(=O)c5ccncc5)cc4)C3)CC2)CN(C)Cc2ccccc21 (mixture of isomers) [Cpd. No. 210, rac-(1S,2R)-2-(2-methyl-4-(1-((1-(4-(pyridin-4-ylsulfonyl)phenyl)azetidin-3-yl)methyl)piperidin-4-yl)-1,2,3,4-tetrahydroisoquinolin-4-yl)cyclopentyl methylcarbamate]
IC50 [1, 5]: 0.135 ± 0.093 µM
IC50 [1, 6]: 0.023 ± 0.016 µM
MEIS1 gene expression ([2]; 4 days of treatment): reduced
HOX7 gene expression [2, 9]: reduced
HOX10 gene expression [2, 9]: reduced
IC50 ([3]; Menin Binding Affinity IC50 (μM)): 0.004 µM
HOX7 gene expression ([4]; 4 days of treatment): not as robust as those of HOX10
MEIS1 gene expression ([4]; 4 days of treatment): reduced
MYB gene expression ([4]; 4 days of treatment): no effect
HOX10 gene expression [4, 9]: reduced

SMILES: CNC(=O)O[C@@H]1CCC[C@H]1C(Cn1ccnc1C)(c1cccc(F)c1)C1CCN(CC2CN(c3ccc(S(=O)(=O)c4cnn(C)c4)cc3)C2)CC1 (mixture of isomers) [compound 410, rac-(1R,2S)-2-(1-(3-fluorophenyl)-2-(2-methyl-1H-imidazol-1-yl)-1-(1-((1-(4-((1-methyl-1H-pyrazol-4-yl)sulfonyl)phenyl)azetidin-3-yl)methyl)piperidin-4-yl)ethyl)cyclopentyl methylcarbamate]
IC50 [1, 10]: 3.1 µM
IC50 [1, 11]: 2.7 µM
IC50 [3, 8]: 0.049 µM

SMILES: CCN1Cc2ccccc2C(C2CCCC2)(C2CCN(CC3CN(c4ccc(S(=O)(=O)c5ccncc5C)cc4)C3)CC2)C1 (stereo not drawn) [compound 153, 4-cyclopentyl-2-ethyl-4-(1-((1-(4-((3-methylpyridin-4-yl)sulfonyl)phenyl)azetidin-3-yl)methyl)piperidin-4-yl)-1,2,3,4-tetrahydroisoquinoline]
IC50 [1, 12]: 0.77 µM
IC50 [1, 13]: 0.79 µM
IC50 [3, 8]: 0.007 µM

SMILES: CNS(=O)(=O)c1ccc(N2CC(CN3CCC(C4(C5CCCC5)NCCc5c(F)cccc54)CC3)C2)cc1 (stereo not drawn) [compound 119, 4-(3-((4-(1-cyclopentyl-5-fluoro-1,2,3,4-tetrahydroisoquinolin-1-yl)piperidin-1-yl)methyl)azetidin-1-yl)-N-methylbenzenesulfonamide]
IC50 [1, 12]: 1.3 µM
IC50 [1, 13]: 1.8 µM
IC50 [3, 8]: 0.015 µM

IC50 [3, 8]: 0.005 µM
SMILES: CNC(=O)O[C@H]1CCC[C@@H]1C(Cn1ccnc1)(c1cccc(F)c1)C1CCN(CC2CN(c3ccc(C#N)cc3)C2)CC1 (mixture of isomers) [compound 390, rac-(1S,2R)-2-(1-(1-((1-(4-cyanophenyl)azetidin-3-yl)methyl)piperidin-4-yl)-1-(3-fluorophenyl)-2-(1H-imidazol-1-yl)ethyl)cyclopentyl methylcarbamate]
IC50 [1, 10]: 0.082 µM
IC50 [1, 11]: 0.021 µM

SMILES: CN(C)C(=O)N[C@H]1CCC[C@@H]1C(C#N)(c1ccccc1)C1CCN(CC2CN(c3ccc(S(=O)(=O)c4ccncc4)cc3)C2)CC1 (mixture of isomers) [compound 275, rac-3-((1S,2R)-2-(cyano(phenyl)(1-((1-(4-(pyridin-4-ylsulfonyl)phenyl)azetidin-3-yl)methyl)piperidin-4-yl)methyl)cyclopentyl)-1,1-dimethylurea]
IC50 [1, 10]: 0.41 µM
IC50 [1, 11]: 0.45 µM
IC50 [3, 8]: 0.012 µM

IC50 [3, 8]: 0.006 µM
SMILES: CNC(=O)O[C@H]1CCC[C@@H]1C(C#N)(c1ccccc1)C1CCN(CC2CN(c3ccc(S(=O)(=O)c4ccncc4)cc3)C2)CC1 (mixture of isomers) [Cpd. No. 215, rac-(1S,2R)-2-(cyano(phenyl)(1-((1-(4-(pyridin-4-ylsulfonyl)phenyl)azetidin-3-yl)methyl)piperidin-4-yl)methyl)cyclopentyl methylcarbamate]
IC50 [1, 10]: 0.415 ± 0.208 µM
IC50 [1, 11]: 0.173 ± 0.048 µM
HOX7 gene expression ([4]; 40 hours of treatment): Neither Cpd. No. 366 nor Cpd. No. 215 showed an effect

SMILES: CNC(=O)O[C@H]1CCC[C@@H]1C(Cn1ccnc1)(c1ccccc1)C1CCN(CC2CN(c3ccc(C#N)cc3)C2)CC1 (mixture of isomers) [Cpd. No. 366, rac-(1S,2R)-2-(1-(1-((1-(4-cyanophenyl)azetidin-3-yl)methyl)piperidin-4-yl)-2-(1H-imidazol-1-yl)-1-phenylethyl)cyclopentyl methylcarbamate]
IC50 [1, 5]: 0.14 µM
IC50 [1, 6]: 0.035 µM
MEIS1 gene expression ([2]; 40 hours of treatment): reduced
all the tested HOX genes (HOX7, HOX9, HOX10, HOX11) expression ([2]; 40 hours of treatment, dose dependent): reduces
ITGAM gene expression ([2]; 66 hours of treatment): not effect
MEIS1 gene expression ([2]; 66 hours of treatment): reduced
HOX7 gene expression [2, 7]: reduced
HOX10 gene expression [2, 7]: reduced
MEIS1 gene expression ([2]; 4 days of treatment): reduced
HOX7 gene expression [2, 9]: reduced
HOX10 gene expression [2, 9]: reduced
MYB gene expression ([2]; 4 days of treatment, high concentration): may reduce
IC50 [3, 8]: 0.009 µM
HOX7 gene expression ([4]; 40 hours of treatment): Neither Cpd. No. 366 nor Cpd. No. 215 showed an effect
HOX10 gene expression ([4]; 40 hours of treatment): significantly reduced
HOX11 gene expression ([4]; 40 hours of treatment): significantly reduced
MEIS1 gene expression ([4]; 40 hours of treatment): reduced
HOX7 gene expression ([4]; 4 days of treatment): not as robust as those of HOX10
MEIS1 gene expression ([4]; 4 days of treatment): reduced
MYB gene expression ([4]; 4 days of treatment): no effect
HOX10 gene expression [4, 9]: reduced

SMILES: CN1Cc2ccccc2C(C2CCCC2)(C2CCN(CCCOc3ccc(C#N)cc3)CC2)C1 (stereo not drawn) [compound 23, 4-(3-(4-(4-cyclopentyl-2-methyl-1,2,3,4-tetrahydroisoquinolin-4-yl)piperidin-1-yl)propoxy)benzonitrile]
IC50 [1, 10]: 5 µM
IC50 [1, 11]: 1 ± 0.4 µM
IC50 [3, 8]: 0.054 µM

SMILES: CNC(=O)O[C@H]1CCC[C@@H]1C(C#N)(c1ccccc1)C1CCN(CC2CN(c3ccc(S(=O)(=O)c4nn(C)cc4Br)cc3)C2)CC1 (mixture of isomers) [compound 228, rac-(1S,2R)-2-((1-((1-(4-((4-bromo-1-methyl-1H-pyrazol-3-yl)sulfonyl)phenyl)azetidin-3-yl)methyl)piperidin-4-yl)(cyano)(phenyl)methyl) cyclopentyl methylcarbamate]
IC50 [1, 10]: 0.25 µM
IC50 [1, 11]: 0.18 µM
IC50 [3, 8]: 0.004 µM

SMILES: CNC(=O)O[C@H]1CCC[C@@H]1C(C#N)(c1ccccc1)C1CCN(C2CCN(c3ccc(S(=O)(=O)c4ccccc4)cc3)CC2)CC1 (mixture of isomers) [compound 234, rac-(1S,2R)-2-(cyano(phenyl)(1′-(4-(phenylsulfonyl)phenyl)-[1,4′-bipiperidin]-4-yl)methyl)cyclopentyl methylcarbamate]
IC50 [1, 10]: 6.41 µM
IC50 [1, 11]: 1.11 µM
IC50 [3, 8]: 0.05 µM
